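Results reflect a 48-hour exposure of cells in 96-well plates to compound at five concentrations. TGI: concentration producing complete growth inhibition.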
How the values were obtained:
Test in all cases: DTP human tumour cell line panel, 48 h
786-0 renal = system: 786-0 renal
A498 renal = system: A498 renal
A549 NSCLC = system: A549 NSCLC
ACHN renal = system: ACHN renal
CCRF-CEM leukemia = system: CCRF-CEM leukemia
COLO 205 colon = system: COLO 205 colon
DLD-1 colon = system: DLD-1 colon
DMS 114 small cell lung = system: DMS 114 small cell lung
DMS 273 small cell lung = system: DMS 273 small cell lung
EKVX NSCLC = system: EKVX NSCLC
HCC-2998 colon = system: HCC-2998 colon
HCT-116 colon = system: HCT-116 colon
HL-60(TB) leukemia = system: HL-60(TB) leukemia
HOP-18 NSCLC = system: HOP-18 NSCLC
HOP-62 NSCLC = system: HOP-62 NSCLC
HOP-92 NSCLC = system: HOP-92 NSCLC
HT29 colon = system: HT29 colon
IGROV1 ovarian = system: IGROV1 ovarian
K-562 leukemia = system: K-562 leukemia
KM12 colon = system: KM12 colon
KM20L2 colon = system: KM20L2 colon
LOX IMVI melanoma = system: LOX IMVI melanoma
LXFL 529 NSCLC = system: LXFL 529 NSCLC
M19-MEL melanoma = system: M19-MEL melanoma
MALME-3M melanoma = system: MALME-3M melanoma
MOLT-4 leukemia = system: MOLT-4 leukemia
NCI-H23 lung = system: NCI-H23 lung
NCI-H460 lung = system: NCI-H460 lung
NCI-H522 lung = system: NCI-H522 lung
OVCAR-3 ovarian = system: OVCAR-3 ovarian
OVCAR-5 ovarian = system: OVCAR-5 ovarian
OVCAR-8 ovarian = system: OVCAR-8 ovarian
RXF 393 renal = system: RXF 393 renal
SF-268 CNS = system: SF-268 CNS
SF-295 CNS = system: SF-295 CNS
SF-539 CNS = system: SF-539 CNS
SK-MEL-2 melanoma = system: SK-MEL-2 melanoma
SK-MEL-28 melanoma = system: SK-MEL-28 melanoma
SK-OV-3 ovarian = system: SK-OV-3 ovarian
SNB-75 CNS = system: SNB-75 CNS
SNB-78 CNS = system: SNB-78 CNS
SW-620 colon = system: SW-620 colon
TK-10 renal = system: TK-10 renal
U251 CNS = system: U251 CNS
UACC-257 melanoma = system: UACC-257 melanoma
UO-31 renal = system: UO-31 renal
XF 498 CNS = system: XF 498 CNS
CAKI-1 renal = system: CAKI-1 renal
NCI-H226 lung = system: NCI-H226 lung
OVCAR-4 ovarian = system: OVCAR-4 ovarian
SK-MEL-5 melanoma = system: SK-MEL-5 melanoma
SN12C renal = system: SN12C renal
SNB-19 CNS = system: SNB-19 CNS
SR leukemia = system: SR leukemia
UACC-62 melanoma = system: UACC-62 melanoma

Measured: TGI

O=C1/C(=C/c2ccccc2Cl)COc2ccc(Br)cc21
85 µM: SK-OV-3 ovarian
31.7 µM: K-562 leukemia
80.1 µM: NCI-H522 lung
not listed: CAKI-1 renal | NCI-H226 lung | OVCAR-4 ovarian | SK-MEL-5 melanoma | SN12C renal | SNB-19 CNS | SR leukemia | UACC-62 melanoma
> 100 µM: all other assays above

COc1ccc2cc3c4cc(OC)c(OC)cc4ccn3c2c1
not listed: HCT-116 colon | KM20L2 colon | OVCAR-3 ovarian | SNB-75 CNS
> 100 µM: all other assays above

Reference: PubChem BioAssay (NCI)
